Measured values from patent US20260077065A1, “Compositions and Methods for Assessing Kinase Activity” (The Board of Trustees of the Leland Stanford Junior …, priority 2022, published 2026).

Assays:
[1] = previously characterized; cited from earlier work
ERK [2] = assay: U87-EGFRvIII stable tKiMBI/tKiMBImut reporter cell lines, bioluminescence; format: cell-based, human; conditions: for induction of bioluminescence: tKiMBI-expressing cells; for effect on bioluminescence of control cell lines: tKiMBImut-expressing cells
Method: Next, the ability of KiMBIs to report ERK kinase inhibition in human tumor xenografts in mice was tested. U87-EGFRvIII cells were transduced with lentiviruses expressing tKiMBI-T2A-AkaLuc, where AkaLuc allows kinase-independent tracking of tumor location and size (FIG. 6a). Transduced cells were sorted by fluorescence-activated cell sorting (FACS) and selected by antibiotics to generate polyclonal stable cell lines.
Generation of KiMBI-expressing stable tumor cell lines. U87-EGFRvIII and LN229 cells were lentiviral transduced with pLL3.7m-CMV-KiMBI-T2A-AkaLuc-P2A-Blasticidin. Then, 72 h after transfection, cells were dissociated with trypsin and resuspended in DMEM and then changed to PBS. Suspended cells were sorted for the population with medium fluorescence level (20-40%) on a fluorescence-activated cell sorter (FACS), the FACSJazz (BD Biosciences) at Stanford Shared FACS Facility. After cell sorting, the KiMBI-expressing cells were maintained and passaged in corresponding culture medium supplemented with blasticidin (6 μg/mL for both cell lines) to select for stable polyclonal cell lines. Flow cytometry data were analyzed on FlowJo software. The stable KiMBI expression was validated by examination of tdTomato fluorescence in tKiMBI (and its variants) using an EVOS FL Autoimaging system (Thermo Scientific).
(§1) In vitro cell-based bioluminescent assay. Cells were seeded into 96-well Lumitrac plate (Greiner Bio-One) at a density of 1.5-2×10^4 cells per well. After 24 h, cells were transiently transfected with KiMBI-expressing plasmids (5-10 ng per well) with or without caMEK-expressing plasmids (50 ng per well, empty pcDNA3.1 as negative control to keep total transfected DNA amount consistent) using lipofectamine 3000 (Invitrogen) following manufacturer's instructions. For the stable polyclonal KiMBI-expressing cell liens, this lipofection step was skipped. At 24 h after transfection, the cells were treated with drugs at desired concentration in opti-MEM reduced-serum medium (Thermo Fisher) for 1-1.5 hours. Then, for assaying luminescence, Nano-Glo live cell assay system (Promega) was used following manufacturer's instructions. Time-lapse live luminescence was recorded on Safire-2 microplate reader (Tecan) with 100 ms integration and one read per min for 20 min. Luminescence spectrum was measured on a Varioskan LUX multimode microplate reader (Thermo Scientific) using the spectral scanning protocol with 1 s integration for each wavelength at 400-680 nm (1 nm per data point).

ERK [3] = conditions: mouse, in vivo; cited from earlier work
ERK [4] = assay: Imaging of ERK inhibition in intracranially implanted U87-EGFRvIII cells; format: in vivo, mice
Method: Tested next was whether KiMBI can report ERK inhibition in the brain tumor xenograft model.
U87-EGFRvIII xenografts are known to disrupt the BBB^16. When the BBB-impermeant GSK1120212 (1 mg/kg i.p.) was administered to the same group of mice, a positive response was also observed, with ˜150% higher tKiMBI signal.
(§2) General procedures of kinase inhibitor injection and in vivo bioluminescence imaging. […] For KiMBI (NanoLuc-based bioluminescent reporter) imaging, mice were i.p. injected with either 1.3 μmol (0.56 mg) of fluorofurimazine (FFz) or cephalofurimazine (CFz) in 150 μl of injectable formulation containing 6 mg poloxamer-407 (P-407) in Dulbecco Phosphate Buffered Saline (DPBS, without Ca^2+ or Mg^2+, no. 21-031-CV, Corning) for imaging. Immediately after luciferin administration, mice were anesthetized using isoflurane, and images were acquired in the Ami HT optical imaging system every 1 min for 10 min, with an air flow containing 1-2% isoflurane for stable anesthesia. Imager settings were: emission filter, open; field of view, 25 cm; f-stop 1.2; binning, 2×2 and exposure time, 30 s. Images were analyzed in Aura 4.0 in vivo imaging software. The above-mentioned conditions and settings were for most in vivo studies unless otherwise stated in the specific procedures.
Molecular imaging of ERK inhibition in intracranially implanted cells. The stereotaxic injection on the 7- to 9-week-old male J:NU mice were similar to the afore-mentioned AAV infection surgery. A Hamilton syringe with a 26-gauge needle was inserted 0.62 mm […] and 1.75 mm lateral to the bregma to a depth of 3.5 mm, and after a 2 min wait the needle was pulled back 0.5 mm to allow space for the cell suspension. Following this, 3×10^4 KiMBI-expressing U87-EGFRvIII or LN-229 stable cells in 1.5 μl of PBS were injected at an injection speed of 0.3 μL/min using the syringe pump. To visualize ERK inhibition in U87-EGFRvIII cell implants, 5 days after cell implantation, tumor-bearing mice were i.p. injected with CFz (0.4 μmol, with 1.8 mg P-407) for imaging. […]

Akt [5] = assay: Molecular imaging of Akt inhibition in subcutaneous U87-EGFRvIII tumor model; format: in vivo; conditions: same mice after 2-day interval
Source text: Evaluated next was the capacity of Akt oKiMBI to report Akt inhibition in a subcutaneous tumor model. Engineered U87-EGFRvIII cells that stably express oKiMBI or oKiMBImut were subcutaneously injected at different sites in J:NU mice.

Akt [6] = assay: U87-EGFRvIII cells stably expressing Akt oKiMBI or oKiMBImut, luminescence; format: cell-based, human
Source text: To assess Akt inhibition in human tumor xenografts in mice, either Akt oKiMBI- or oKiMBImut-expressing U87-EGFRvIII stable cell lines were first engineered through lentiviral transduction (FIG. 17a). Fluorescence-activated cell sorting (FACS) was subsequently employed to sort the transduced cells, followed by antibiotics selection to establish polyclonal stable cell lines.

Akt [7] = assay: BAR (bioluminescent Akt reporter, FLuc) luminescence in HEK293A (caAkt), U87-EGFRvIII and LNCaP cells; format: cell-based, human; conditions: all tested cell lines
Akt [8] = assay: Akt oKiMBI luminescence in HEK293A (caAkt), U87-EGFRvIII and LNCaP cells; format: cell-based, human; conditions: all cell lines: HEK293A (caAkt), U87-EGFRvIII, LNCaP
ERK [9] = assay: Imaging of ERK inhibition in intracranially implanted LN-229 cells; format: in vivo, mice; conditions: one week after implantation
Method: 3×10^4 LN-229 cells expressing tKiMBI or tKiMBImut were implanted into the striatum, and KiMBI assays were performed one week later.
Molecular imaging of ERK inhibition in intracranially implanted cells. The stereotaxic injection on the 7- to 9-week-old male J:NU mice were similar to the afore-mentioned AAV infection surgery. A Hamilton syringe with a 26-gauge needle was inserted 0.62 mm dorsal and 1.75 mm lateral to the bregma to a depth of 3.5 mm, and after a 2 min wait the needle was pulled back 0.5 mm to allow space for the cell suspension. […]

ERK [10] = assay: Time-lapse imaging of ERK inhibition in intracranially implanted U87-EGFRvIII cells; format: in vivo, mice
Method: A non-invasive method with the potential for longitudinal studying of drug pharmacokinetics and pharmacodynamics should allow rapid dose and schedule optimization for drug development.
as §2
Time-lapse imaging of ERK inhibition in intracranially implanted cells. One week after implantation of 10^5 KiMBI-expressing U87-EGFRvIII stable cells, the tumor-bearing mice were i.p. injected with CFz (0.2 μmol, with 0.8 mg P-407) for the initial imaging to establish the signal baseline before drug administration.

ERK [11] = assay: Molecular imaging of ERK inhibition in KiMBI-encoded AAV infected mouse brain; format: in vivo
Method: Using CFz, tested was whether tKiMBI could report the BBB-permeance of ERK pathway inhibitors in living mice. tKiMBI-T2A-caMEK or the negative control tKiMBImut-T2A-caMEK were expressed in mouse striatum by AAV transduction (FIG. 9a).
as §2
Molecular imaging of ERK inhibition in KIMBI-encoded AAV infected mouse brain. […]

ERK [12] = assay: Molecular imaging of ERK inhibition in subcutaneous U87-EGFRvIII tumor model; format: in vivo, mice; conditions: 2 h after injection, FFz imaging
Method: The ability of tKiMBI to report ERK pathway inhibition in tumors in vivo was assessed. Mice were injected subcutaneously with 10^6 tKiMBI-expressing cells on one side and, to control for differences in substrate delivery between injections, tKiMBImut-expressing reporter cells on the other side (FIG. 7a).
Molecular imaging of ERK inhibition in subcutaneously implanted cells. […]

ERK [13] = assay: ERK KiMBI cell-based bioluminescent assay, HEK293A cells co-transfected with caMEK
Source text: To develop a luciferase reporter protein whose activity can be activated by ERK inhibition, it was hypothesized that NanoLuc luciferase catalytic activity could be modulated through large ERK-induced conformational changes. Created and tested were fusion proteins of various topologies (FIG. 2a) comprising the NanoLuc NanoBiT fragments, an ERK substrate peptide from Cdc25C^7, and a proline-directed WW phospho-binding domain (WW)^8 from Pin1. In particular, an arrangement was postulated in which binding of phosphorylated substrate (pSub) to WW would force the SmBiT fragment to adopt an unfavorable conformation for LgBiT complementation, would show low luminescence with active ERK and high luminescence with inhibited ERK (FIG. 2b). The KiMBI candidates were screened by co-transfection into HEK293A cells with a constitutively active MEK (caMEK) followed by application of the ERK inhibitor Vx-Ile.
as §1

Structure (SMILES): CC(=O)Nc1cccc(-n2c(=O)n(C3CC3)c(=O)c3c(Nc4ccc(I)cc4F)n(C)c(=O)c(C)c32)c1 [GSK1120212, trametinib]
- BBB permeation [1]: poor BBB permeation
- induction of bioluminescence (ERK [2]): ~4 fold
- drug level and ERK inhibition in brains of drug-injected mice (ERK [3]): no detectable GSK1120212 or ERK inhibition
- higher tKiMBI signal (ERK [4]; 1 mg/kg i.p., same group of mice): ~150%

Structure (SMILES): NC(=O)c1cccc2c(N[C@H](CN3CCC3)c3ccc(Cl)c(C(F)(F)F)c3)ncnc12 [M2698]
- inhibition of the Akt pathway reported by Akt oKiMBI (Akt [5]): effective inhibition of the Akt pathway
- signal response of oKiMBImut cells to drug treatment (Akt [6]; cells expressing oKiMBImut): did not exhibit any signal increase
- increase in luminescent signals (Akt [6]; cells stably expressing Akt oKiMBI): ~2.5 fold
- BAR and BARmut response to Akt inhibitor (Akt [7]): miniscule positive responses
- oKiMBI luminescence response to Akt inhibitor (Akt [8]): significant increase in luminescence

Structure (SMILES): O=C(NOC[C@H](O)CO)c1ccc(F)c(F)c1Nc1ccc(I)cc1F [PD0325901, mirdametinib]
- BBB permeation [1]: BBB-permeant
- induction of bioluminescence (ERK [2]): ~4 fold
- effect on bioluminescence of control cell lines (ERK [2]): slightly reduced bioluminescence
- increase in signal from tKiMBI (ERK [9]): > 3 fold
- return of signal to baseline (ERK [10]; 25 mg/kg i.p., tKiMBI): backed to baseline on the second day
- time for bioluminescence signal to rise to plateau (ERK [10]; 25 mg/kg i.p., tKiMBI): ≤ 1 h
- time post-treatment at which signal declined to about half (ERK [10]; 25 mg/kg i.p., tKiMBI): around 8 hrs
- time until which signal remained high (ERK [10]; 25 mg/kg i.p., tKiMBI): about 4 h
- signal increase in control cells (ERK [10]; after 24 h, tKiMBImut control cells): ~1.4 fold
- bioluminescence of tKiMBI in brain (ERK [11]; 25 mg/kg, CFz imaging, tKiMBI-T2A-caMEK): robustly induced bioluminescence
- able to induce a signal increase in KiMBI (ERK [11]; AAV-infected mice brain (discussion)): able to induce a signal increase
- increase in brightness of tKiMBI tumor (ERK [12]; tKiMBI): 100%
- increase in brightness of tKiMBImut tumor (ERK [12]; tKiMBImut control): ~10%
- induction of tKiMBI signal (ERK [13]; AAV plasmids caMEK-T2A-tKiMBI (A1) and tKiMBI-T2A-caMEK (A2), both): approximately 4 fold
- increase in tKiMBI signal (ERK [4]; after PD0325901 administration, CFz): ~200%
- decrease in tKiMBImut signal (ERK [4]; after PD0325901 administration, control reporter): ~10%

Structure (SMILES): O=C(Nc1ccc2[nH]nc(-c3ccncc3)c2c1)[C@@H]1CCN(CC(=O)N2CCN(c3ccc(-c4ncccn4)cc3)CC2)C1 [SCH772984]
- induction of bioluminescence (ERK [2]): ~4 fold
- effect on bioluminescence of control cell lines (ERK [2]): slightly reduced bioluminescence

Structure (SMILES): Cc1cnc(Nc2ccc(F)cc2Cl)nc1-c1c[nH]c(C(=O)N[C@H](CO)c2cccc(Cl)c2)c1 [Vx-11e]
- increase in luminescence (ERK [13]; 03 topology KiMBI candidate, 1 μM Vx-11e): ~65%
- induction of bKiMBI luminescence by inhibitor (ERK [13]; ERK blue KiMBI (WW F25A)): > 10 fold
